Measurements: publication PMC9822270, “Modulation Effect on Tubulin Polymerization, Cytotoxicity and Antioxidant Activity of 1H-Benzimidazole-2-Yl Hydrazones” (Molecules, 2022)
Values joined by “and” are separate entries in the source; they are usually repeats but may differ in a detail not shown here. Equal entries are not always repeated. “Also recorded” adds a separate entry of the source. Where two headings read alike, the source gives them in different places.

Experiments:
porcine brain tubulin = target: T1, porcine brain tubulin (Sus scrofa, UniProt P02550+P02554); experiment: In vitro tubulin polymerization assay (turbidity at 340 nm); type: biochemical; conditions: 10 µM compound; for Initial Rate of the Exponential Phase, Signal Response / Lag Time: 37 °C, 90 min, turbidity 340 nm
T1 construct: The standard reaction mixture contains 95 μL of 4 mg.mL^−1 porcine brain tubulin; purchased Cytoskeleton, USA BK004P; host or cells: porcine brain (tissue-purified)
T1 sequence (P02550 whole entry): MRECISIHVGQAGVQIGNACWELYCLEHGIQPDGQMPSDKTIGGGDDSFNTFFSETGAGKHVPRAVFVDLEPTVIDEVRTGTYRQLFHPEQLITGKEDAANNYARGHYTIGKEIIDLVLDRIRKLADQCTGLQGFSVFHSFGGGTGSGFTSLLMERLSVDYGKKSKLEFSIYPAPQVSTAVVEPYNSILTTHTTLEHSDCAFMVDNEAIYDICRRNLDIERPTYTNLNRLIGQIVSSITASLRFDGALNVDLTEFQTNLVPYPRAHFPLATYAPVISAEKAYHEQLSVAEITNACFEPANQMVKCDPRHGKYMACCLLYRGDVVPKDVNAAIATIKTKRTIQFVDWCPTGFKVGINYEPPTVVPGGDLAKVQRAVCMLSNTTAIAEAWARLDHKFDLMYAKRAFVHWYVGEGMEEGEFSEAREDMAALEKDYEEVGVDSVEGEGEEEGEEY
T1 sequence (P02554 whole entry): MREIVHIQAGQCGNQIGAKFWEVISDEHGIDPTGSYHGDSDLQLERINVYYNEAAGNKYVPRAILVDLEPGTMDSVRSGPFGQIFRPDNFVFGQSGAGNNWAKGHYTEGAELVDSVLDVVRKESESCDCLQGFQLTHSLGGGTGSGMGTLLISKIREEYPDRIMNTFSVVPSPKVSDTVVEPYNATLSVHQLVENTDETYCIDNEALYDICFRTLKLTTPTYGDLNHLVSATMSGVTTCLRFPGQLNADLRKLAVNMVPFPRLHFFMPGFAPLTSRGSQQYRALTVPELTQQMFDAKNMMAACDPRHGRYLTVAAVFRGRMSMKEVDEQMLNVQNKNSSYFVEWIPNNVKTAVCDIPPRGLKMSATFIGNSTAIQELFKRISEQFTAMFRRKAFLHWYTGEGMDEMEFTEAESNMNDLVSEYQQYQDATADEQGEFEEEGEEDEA
Protocol: The ability of the compounds to modulate the polymerization of tubulin was evaluated in vitro on purified porcine tubulin by spectrophotometric monitoring at 340 nm and compared to those of nocodazole and paclitaxel as reference compounds. Nocodazole which inhibits the assembly of tubulin was used as a positive control, and paclitaxel which is a stabilizing agent of tubulin polymerization was used as a negative control. Tubulin polymerization was determined with 10 µM of the reference drugs and compounds 1a–l for 90 min.
Figure 3 Porcine brain tubulin (final […]) in presence of PB-GTP buffer, 10 µM paclitaxel, 10 µM nocodazole and 10 µM of the assayed compounds. Reaction was conducted in thermostated spectrophotometric chamber at 37 °C for 90 min. Turbidity was measured at 340 nm every 30 s.
The effect of the studied compounds on the polymerization of purified porcine tubulin was monitored using a commercial assay kit (cat. number BK004P), purchased from Cytoskeleton, USA. Stock solutions of porcine brain tubulin solutions (4 mg.mL^−1) were prepared immediately prior to use in general tubulin buffer (80 mM piperazine-N,N′-bis(2-ethanesulfonic acid, PIPES) pH 6.9, 2 mM MgCl2 and 0.5 mM (ethylene glycol-bis(β-aminoethyl ether)-N,N,N′,N′-tetraacetic acid, EGTA) containing 1 mM guanosine triphosphate (GTP) (G-PEM buffer). Stock solutions of Paclitaxel (100 µM), Noconazole (100 µM) or tested samples (100 µM) in G-PEM buffer containing 5% DMSO were prepared.
The standard reaction mixture contains 95 μL of 4 mg.mL^−1 porcine brain tubulin and 5 μL of standards, test samples or G-PEM buffer only (control). Then, the microplate with loaded reaction mixtures was incubated for 90 min. at 37 °C in a thermostated spectrophotometer chamber. The turbidity of the mixtures was measured at 340 nm every 30 s. The experiment was performed on SpectroStar Nano (BMG Labtech, Aylesbury, UK) equipped with software for kinetic measurements.

[1] = test system: MCF-7 (ER-positive breast adenocarcinoma); experiment: MTT cytotoxicity assay, MCF-7; type: cell-based, human; conditions: for IC50: Homo sapiens, read-out: IC50 MCF-7
Text: (§1) A standard colorimetric MTT assay was used to evaluate the anticancer activity of the newly synthesized 1H-benzimidazol-2-yl hydrazone derivatives against human malignant cell lines of different histological origin, namely MCF-7 (ER-positive breast adenocarcinoma) and AR-230 (BCR-ABL positive chronic myeloid leukemia), using podophyllotoxin as a reference drug. For each compound, the half-inhibitory concentrations (IC50) were estimated based on the derived “dose–response” relationships following 72h exposure time. In addition, their cytotoxicity was measured against normal fibroblast cells 3T3 (mouse embryo fibroblasts) and CCL-1 (murine fibroblasts) and respective cancer selectivity indices (CSI) were calculated (Table 2).
(§2) The cell lines MCF-7, AR-231 and CCL-1 were obtained from the German Collection of Microorganisms and Cell Cultures. Cells were kept in a controlled environment—RPMI-1640 medium supplemented with 10% fetal bovine serum (FBS) and 2mM L-glutamine, at 37 °C in an incubator with 5% CO2 humidified atmosphere.
(§3) MTT-based colorimetric assay was used for evaluating the cell viability. The method is based on the reduction of the yellow tetrazolium compound MTT to water-insoluble, violet formazan crystals. MCF-7, AR-231, and CCL-1 cells were seeded in 96-well, flatbottomed microplates (100 µL/well) at a density of 3 × 10^5 cells per mL and allowed to grow for 24 h prior the exposure to the studied compounds. Cells were exposed to the tested agents for 72 h. After the exposure period MTT solution (10 mg.mL^−1) aliquots (100 µL/well) were added to each well. The plates were further incubated for 4 h at 37 °C and the MTT-formazan crystals formed were dissolved through addition of […] of 5% HCOOH in 2-propanol. The absorption was measured at 580 nm using a microplate reader (Labexim LMR-1).

[2] = test system: AR-230 (BCR-ABL positive chronic myeloid leukemia); experiment: MTT cytotoxicity assay, AR-230; type: cell-based, human; conditions: for IC50: Homo sapiens, read-out: IC50 AR-230
Text: as §1, §2, §3

[3] = test system: CCL-1 (murine fibroblasts); experiment: MTT cytotoxicity against normal CCL-1 cells; type: cell-based; conditions: Mus musculus, 72 h, read-out: IC50 CCL-1
Text: as §1, §2, §3

[4] = test system: 3T3 (mouse embryo fibroblasts); experiment: Cytotoxicity against normal 3T3 cells; type: cell-based; conditions: normal mouse embryo fibroblast cell line; ± SD
Text: as §1
Evaluation of the cytotoxic activity of some of the compounds was performed on 3T3 (mouse embryo fibroblasts) cell line. The cells were cultivated in Dulbecco′s Modified Eagle′s Medium (DMEM), containing 10% FBS, with supplements L-glutamine, sodium pyruvate, antibiotic and non-essential amino acids, and allowed to adhere overnight at 37 °C in an incubator with 5% CO2 humidified atmosphere. At the end of the incubation, the cells were treated with different concentrations of the compounds in a final volume of 100 μL/well in triplicate wells for each treatment for 24 h at 37 °C in a CO2 incubator. All studies were repeated at least twice. Control cells were grown in DMEM containing 10% FBS and allowed to stabilize overnight at 37 °C in a CO2 incubator and left without treatment.

[5] = Hydroxyl radical averting capacity (HORAC); conditions: gallic acid equivalents; sample final concentration 2.5 μM; Co(II)/H2O2, fluorescein; mean
Protocol: HORAC values of various phenolic compounds are related to their metal chelating properties and molecules that can chelate metals show significant HORAC values. According to the HORAC assays, the antioxidant capacity ranged between 0.50 and 3.03 GAE. […] To our knowledge, the current study is the first one to report ORAC and HORAC activities of 1H-benzimidazole-2-yl hydrazones.
HORAC was performed according to Ou et al. and fluorescein was used as the fluorescent probe. Hydrogen peroxide solution of 0.55 M was prepared in distilled water. 4.6 mM Co(II) was prepared as follows: 15.7 mg of CoF2.4H2O and 20 mg of picolinic acid were dissolved in 20 mL of distilled water. Fluorescein—170 µL (60 nM, final concentration) and 10 µL of sample were incubated at 37 °C for 10 min directly in the FLUOstar plate reader. […] The initial fluorescence was measured after which the readings were taken every minute after shaking. […] The AUC were calculated as they were for the ORAC assay. One HORAC unit was assigned to the net protection area provided by 1 µM gallic acid (final concentration −0.05 μM) and the activity of the sample was expressed as Gallic Acid Equivalents (GAE).
ORAC and HORAC analyses were carried out on a FLUOstar Galaxy plate reader (BMG Labtechnology, Offenburg, Germany) with excitation wavelength = 485 nm and emission wavelength = 520 nm.

[6] = normal murine fibroblast cell line, MTT, ± SD

| SMILES | lag time of tubulin polymerization (porcine brain tubulin) | Initial Rate of the Exponential Phase, Signal Response (porcine brain tubulin) [a.u.s^−1 × 10^−6] | Lag Time (porcine brain tubulin) | IC50 ([1]; MCF7, MTT, 72 h exposure, ± SD) [µM] | CSI MCF-7 (cancer selectivity index) ([1]; IC50(CCL-1)/IC50(MCF-7)) | IC50 ([2]; MTT, 72 h exposure, ± SD) [µM] | CSI AR230 (cancer selectivity index) ([2]; IC50(CCL-1)/IC50(AR-230)) | IC50 [3, 6] [µM] | CSI MCF-7 (cancer selectivity index) ([1]; IC50(3T3)/IC50(MCF-7)) | CSI AR230 (cancer selectivity index) ([2]; IC50(3T3)/IC50(AR-230)) | IC50 [4] [µM] | HORAC [5] [GAE] | IC50 ([1]; MCF7, 72 h) [µM] | IC50 ([2]; 72 h) [µM] | IC50 ([3]; Fibroblast) [µM] |
| --- | --- | --- | --- | --- | --- | --- | --- | --- | --- | --- | --- | --- | --- | --- | --- |
| COc1cccc(/C=N/Nc2nc3ccccc3[nH]2)c1O [Compound 1j] | more than 20 min | 16.9 | 1200 s | 6.4 ± 1.2 | > 50 | 1.1 ± 0.2 | ≈ 363; also recorded: ≈363.6 | > 400 |  |  |  |  |  |  |  |
| COc1ccc(/C=N/Nc2nc3ccccc3[nH]2)c(O)c1 [Compound 1k] | more than 20 min | 9.7 | 1295 s | 1.5 ± 0.3 | ≈67.8 | 0.9 ± 0.1 | ≈113 | 102 ± 7.3 |  |  |  |  |  |  |  |
| COc1cc(/C=N/Nc2nc3ccccc3[nH]2)cc(OC)c1OC [Compound 1i] |  | 20.6 | 988 s | 1.2 ± 0.2 |  | 1.7 ± 0.3 |  |  | ≈59.1 | ≈41.7 | 71 ± 2.4 |  |  |  |  |
| COc1ccc(/C=N/Nc2nc3ccccc3[nH]2)cc1O [Compound 1l] |  | 16 | no lag phase | 27.6 ± 3.5 |  | 16.8 ± 3.4 |  |  | ≈4.8 | ≈8 | 134.7 ± 1.3 |  |  |  |  |
| Oc1cccc(/C=N/Nc2nc3ccccc3[nH]2)c1O [Compound 1b] |  | 13.4 | 1400 s and 1461 s | 64.5 ± 6.2 |  | 3.3 ± 0.3 |  |  | ≈1 | ≈18.4 | 61.1 ± 1.8 |  |  |  |  |
| COc1ccc(/C=N/Nc2nc3ccccc3[nH]2)cc1 [Compound 1f] |  | 17.1 | 807 s | 11.2 ± 1.3 |  | 19.4 ± 2.2 |  |  | ≈31.6 | ≈18.2 | 355 ± 5.3 |  |  |  |  |
| CC(=O)O[C@H]1C(=O)[C@@]2(C)[C@H]([C@H](OC(=O)c3ccccc3)[C@]3(O)C[C@H](OC(=O)[C@H](O)[C@@H](NC(=O)c4ccccc4)c4ccccc4)C(C)=C1C3(C)C)[C@]1(OC(C)=O)CO[C@@H]1C[C@@H]2O [paclitaxel, reference compound] |  | 167 | 151 s |  |  |  |  |  |  |  |  |  |  |  |  |
| Oc1ccccc1/C=N/Nc1nc2ccccc2[nH]1 [Compound 1a] |  | 8.77 | 1390 s | 18.7 ± 1.1 |  | 21.2 ± 2.3 |  |  | ≈11 | ≈9.6 | 204 ± 5.1 |  |  |  |  |
| Oc1ccc(/C=N/Nc2nc3ccccc3[nH]2)c(O)c1O [Compound 1e] |  |  |  |  |  |  |  |  |  |  |  | 2.79 |  |  |  |
| COc1cccc(OC)c1/C=N/Nc1nc2ccccc2[nH]1 [Compound 1g] |  | 10.7 | 1000 s | 7.9 ± 2.1 |  | 11.5 ± 1 |  |  | ≈33 | ≈22.6 | 261 ± 4.7 |  |  |  |  |
| COC(=O)Nc1nc2ccc(C(=O)c3cccs3)cc2[nH]1 [nocodazole, reference compound] |  | 52 | 935 s |  |  |  |  |  |  |  |  |  |  |  |  |
| COc1cc(/C=N/Nc2nc3ccccc3[nH]2)cc(OC)c1 [Compound 1h] |  | 23.1 | 1090 s | 4.6 ± 0.7 |  | 5.9 ± 0.9 |  |  | ≈72.8 | ≈56.7 | 335 ± 7 |  |  |  |  |
| Oc1ccc(/C=N/Nc2nc3ccccc3[nH]2)c(O)c1 [Compound 1c] |  | 4.9 | 1190 s |  |  |  |  |  |  |  |  | 2.69 |  |  |  |
| Oc1ccc(/C=N/Nc2nc3ccccc3[nH]2)cc1O [Compound 1d] |  | 13.3 | 1400 s and 1407 s |  |  | 61.8 ± 5.7 | ≈1.8 | 113 ± 9.1 |  |  |  |  |  |  |  |
| COc1cc([C@@H]2c3cc4c(cc3[C@H](O)[C@H]3COC(=O)[C@H]23)OCO4)cc(OC)c1OC [Podophyllotoxin, reference compound] |  |  |  |  | ≈9 |  | ≈5.7 |  |  |  |  |  | 0.3 ± 0.06 | 0.47 ± 0.09 | 2.7 |
